These results are taken from patent US20200375999A1, “PHARMACEUTICAL COMBINATIONS OF EGFR INHIBITORS AND METHODS OF USE THEREOF” (DANA-FARBER CANCER INSTITUTE, INC., priority 2018, published 2020).

By IC50 is commonly meant the concentration that gives 50% inhibition.

Where two headings read alike, the source gives them in different places.

Assay [1] relates to EGFR L858R/T790M/C797S Ba/F3 cell line. Put plainly: Ba/F3 cell proliferation (MTS assay), EGFR L858R/T790M/C797S. It counts as cell-based, murine. The conditions noted are these: for Activity (% cetuximab); inhibition of proliferation: compound at 1 μM in the presence of 1 μg/mL cetuximab, EGFR L858R/T790M/C797S; for Activity (% DMSO control); inhibition of proliferation: compound at 1 μM, EGFR L858R/T790M/C797S Ba/F3. On the procedure:
(§1) The EGFR mutant L858R, Del E746_A750, L858R/T790M, DelE746_A750/T790M, L858R/T790M/C797S and Del/T790M/C797S Ba/F3 cells were previously described (Zhou et al., Nature 462, (2009), 1070-1074). All cell lines were maintained in RPM 1640 (Cellgro; Mediatech Inc., Herndon, Calif.) supplemented with 10% FBS 100 units/mL penicillin, 100 units/mL streptomycin, and 2 mM glutamine. L858R cells were maintained in ACL-4 media (Invitrogen, Carlsbad, Calif.) supplemented with 5% FBS, 100 units/mL penicillin, 100 units/mL streptomycin, and 2 mM glutamine. The EGFR 1941R mutation was introduced via site directed mutagenesis using the Quick Change Site-Directed Mutagenesis kit (Stratagene: La Jolla, Calif.) according to the manufacturer's instructions. All constructs were confirmed by DNA sequencing. The constructs were shuttled into the retroviral vector JP1540 using the BD Creator™ System (BD Biosciences). Ba/F3 cells were infected with retrovirus and according to standard protocols, as described previously (Zhou 2009). Stable clones were obtained by selection in puromycin (2 μg/ml).
Growth and inhibition of growth was assessed by MTS assay and was performed according to previously established methods (Zhou 2009). The MTS assay is a colorimetric method for determining the number of viable cells that is based on the bioreduction of MTS by cells to a formazan product that is soluble in cell culture medium and can be detected spectrophotometrically. Ba/F3 cells of different EGFR genotypes were exposed to treatment and the number of cells used per experiment determined empirically and has been previously established (Zhou 2009). All experimental points were set up in six wells and all experiments were repeated at least three times. […] The curves were fitted using anon-linear regression model with a sigmoidal dose response.
For orientation: Formazan colour is commonly taken as a measure of viable cells.

Assay [2] addresses T1, recombinant EGFR T790M/L858R kinase (Homo sapiens, UniProt P00533, L858R/T790M).
T1 construct: Constructs spanning residues 696-1022 of the human EGFR; GST (cleaved yes); made in house; host or cells: Sf9 insect cells
Nature of the assay: HTRF-based EGFR biochemical assay. On the procedure: EGFR kinase proteins were purified by glutathione-affinity chromatography followed by size-exclusion chromatography after cleavage with TEV or thrombin to remove the GST fusion partner following established procedures. (Yun 2008; Yun 2007).
EGFR biochemical assays were carried out using a homogeneous time-resolved fluorescence (HTRF) assay as described previously. The reaction mixtures contained 1 μM biotin-Lck-peptide substrate, wild type or mutant EGFR enzyme in reaction buffer (50 mM HEPES pH 7.1, 10 mM MgCl2, 0.01% BSA. 1 mM TCEP and 0.1 mM Na3VO4) at a final volume of 10 μL. […] All reactions were carried out at room temperature in white ProxiPlate™ 384-well Plus plates (PerkinElmer) and were quenched with 5 μL of 0.2 M EDTA at 60 min. Five μL per well of the detection reagent containing 2.5 ng PT66K (Cis-bio) and 0.05 μg SAXL (Prozyme) were added, and the plates were then incubated at room temperature for 1 hour and read with an EnVision plate reader.
For orientation: TR-FRET usually uses a lanthanide donor and a delayed reading to cut background.

Assay [3] deals with T2, EGFR T790M/L858R Ba/F3 cell line (Homo sapiens, UniProt P00533, T790M/L858R, cells depend on it).
T2 construct: "The constructs were shuttled into the retroviral vector JP1540 using the BD Creator™ System (BD Biosciences)
Nature of the assay: Ba/F3 cell proliferation (MTS assay), EGFR T790M/L858R. The format is cell-based, murine. The conditions noted are these: for Activity (% cetuximab); inhibition of proliferation: compound at 1 μM in the presence of 1 μg/mL cetuximab; for Activity (% cetuximab); inhibition of proliferation / Activity (% DMSO control); inhibition of proliferation: EGFR T790M/L858R Ba/F3; for Activity (% DMSO control); inhibition of proliferation: compound at 1 μM. How it is done:
as §1, with “All” for “The EGFR mutant L858R, Del E746_A750, L858R/T790M, DelE746_A750/T790M, L858R/T790M/C797S and Del/T790M/C797S Ba/F3 cells were previously described (Zhou et al., Nature 462, (2009), 1070-1074). All”, “L858R cells were maintained in ACL-4 media (Invitrogen, Carlsbad, Calif.) supplemented with 5% FBS, 100 units/mL penicillin, 100 units/mL streptomycin, and 2 mM glutamine.” left out
Growth and inhibition of growth was assessed by MTS assay and was performed according to previously established methods (Zhou 2009). The MTS assay is a colorimetric method for determining the number of viable cells that is based on the bioreduction of MTS by cells to a formazan product that is soluble in cell culture medium and can be detected spectrophotometrically. […] All experimental points were set up in six wells and all experiments were repeated at least three times. […] The curves were fitted using anon-linear regression model with a sigmoidal dose response.

Setting [4] is: absence of cetuximab, read-out: Ba/F3 cellular activity (EC50) T790M/L858R.
Setting [5] is: read-out: Ba/F3 cellular activity (EC50) T790M/L858R + Cetuximab (1 μg/mL), presence of 1 μg/mL cetuximab.

T2 sequence (P00533 whole entry T790M/L858R): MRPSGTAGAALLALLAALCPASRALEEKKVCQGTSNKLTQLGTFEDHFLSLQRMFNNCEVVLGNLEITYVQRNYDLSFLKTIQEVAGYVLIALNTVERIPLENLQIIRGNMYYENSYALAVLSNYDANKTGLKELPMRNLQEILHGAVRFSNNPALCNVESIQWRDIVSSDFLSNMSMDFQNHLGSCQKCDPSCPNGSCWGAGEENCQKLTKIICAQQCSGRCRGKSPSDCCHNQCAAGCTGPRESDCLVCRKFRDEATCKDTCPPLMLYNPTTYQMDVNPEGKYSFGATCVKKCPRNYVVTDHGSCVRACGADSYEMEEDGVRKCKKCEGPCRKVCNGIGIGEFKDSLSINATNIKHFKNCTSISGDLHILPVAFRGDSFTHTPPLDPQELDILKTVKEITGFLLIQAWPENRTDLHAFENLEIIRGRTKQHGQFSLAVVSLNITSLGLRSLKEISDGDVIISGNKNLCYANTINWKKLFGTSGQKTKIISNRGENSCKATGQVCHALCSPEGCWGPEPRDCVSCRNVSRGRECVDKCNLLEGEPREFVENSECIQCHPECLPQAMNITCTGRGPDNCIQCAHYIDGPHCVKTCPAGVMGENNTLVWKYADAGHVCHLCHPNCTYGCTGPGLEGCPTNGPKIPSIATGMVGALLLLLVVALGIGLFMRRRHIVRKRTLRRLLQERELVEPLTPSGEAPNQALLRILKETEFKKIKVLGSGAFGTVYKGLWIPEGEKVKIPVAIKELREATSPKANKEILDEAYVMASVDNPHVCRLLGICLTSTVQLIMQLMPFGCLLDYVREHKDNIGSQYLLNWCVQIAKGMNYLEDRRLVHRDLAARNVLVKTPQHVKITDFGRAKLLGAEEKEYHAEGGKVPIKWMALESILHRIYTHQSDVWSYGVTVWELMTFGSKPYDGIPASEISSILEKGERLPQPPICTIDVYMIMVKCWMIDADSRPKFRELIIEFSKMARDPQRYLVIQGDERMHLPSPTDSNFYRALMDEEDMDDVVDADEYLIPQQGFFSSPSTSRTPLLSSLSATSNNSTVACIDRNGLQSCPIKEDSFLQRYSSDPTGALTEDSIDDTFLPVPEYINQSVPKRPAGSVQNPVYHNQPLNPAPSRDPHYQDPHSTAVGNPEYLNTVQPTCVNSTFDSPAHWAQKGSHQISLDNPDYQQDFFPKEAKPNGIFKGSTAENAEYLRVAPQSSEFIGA
T1 sequence (P00533 696-1022 T790M/L858R): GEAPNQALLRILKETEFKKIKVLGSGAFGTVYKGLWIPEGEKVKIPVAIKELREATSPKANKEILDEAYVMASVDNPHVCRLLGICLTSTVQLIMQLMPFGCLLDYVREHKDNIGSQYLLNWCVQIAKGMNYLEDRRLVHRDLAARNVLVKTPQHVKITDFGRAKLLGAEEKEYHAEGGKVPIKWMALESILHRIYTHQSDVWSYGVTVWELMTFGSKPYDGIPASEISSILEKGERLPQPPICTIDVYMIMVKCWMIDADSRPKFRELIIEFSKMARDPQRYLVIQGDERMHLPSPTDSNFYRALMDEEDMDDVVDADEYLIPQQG

Regarding `O=C1c2cc(-c3ccc(-c4cn[nH]c4)cc3)ccc2Nc2ccc(F)cc2N1Cc1ccccc1` [Compound I-4], the “Activity (% cetuximab); inhibition of proliferation” value (“Activity (% cetuximab); inhibition” for short) in assay [1] and in assay [3] was “A (0 ≤ A < 25)” each time. Besides, the “Activity (% DMSO control); inhibition of proliferation” value (“Activity (% DMSO control); inhibition” for short) in assay [1] and in assay [3] was “D (75 ≤ D)” each time. The IC50 in assay [2] is < 250 nM. The EC50 in assay [3] (setting [4]) was ≥ 750 nM; in assay [3] (setting [5]), 250 to 500 nM.

Consider `O=C1c2cc(-c3ccc(N4CCNCC4)cc3)ccc2Nc2ccc(F)cc2N1Cc1ccc2cc[nH]c2c1` [Compound I-19], for which the IC50 in assay [2] is ≥ 750 nM. Also, the EC50 in assay [3] (setting [4]) and in assay [3] (setting [5]) was ≥ 750 nM throughout.

As for `O=C1c2cc(-c3ccc(N4CCNCC4)cc3)ccc2Nc2ccncc2N1Cc1ccccc1` [Compound I-13], the IC50 in assay [2] is ≥ 750 nM. The EC50 in assay [3] (setting [4]) and in assay [3] (setting [5]) was ≥ 750 nM in each case.

In the case of `O=C1c2cc(-c3ccc(N4CCNCC4)cc3)ccc2Nc2ccc(F)cc2N1c1ccccc1` [Compound I-5], the “Activity (% cetuximab); inhibition” value in assay [1] and in assay [3] was “D (75 ≤ D)” throughout. Moreover, the “Activity (% DMSO control); inhibition” value in assay [1] and in assay [3] was “D (75 ≤ D)” throughout. Also, in assay [2], the IC50 is ≥ 750 nM. Moreover, the EC50 in assay [3] (setting [4]) and in assay [3] (setting [5]) was ≥ 750 nM in each case.

`O=C1c2cc(-c3ccc4[nH]ccc4c3)ccc2Nc2ccc(F)cc2N1Cc1ccccc1` [Compound I-2]: the “Activity (% cetuximab); inhibition” value was “A (0 ≤ A < 25)” in assay [1] and “B (25 ≤ B < 50)” in assay [3]. The “Activity (% DMSO control); inhibition” value in assay [1] and in assay [3] was “D (75 ≤ D)” in each case. In assay [2], the IC50 is < 250 nM. Also, the EC50 was ≥ 750 nM in assay [3] (setting [4]) and < 250 nM in assay [3] (setting [5]).

Consider `O=C1c2cc(-c3ccc4[nH]ccc4c3)ccc2Nc2ccc(F)cc2N1c1ccccc1` [Compound I-8], for which the “Activity (% cetuximab); inhibition” value in assay [1] and in assay [3] was “D (75 ≤ D)” each time. The “Activity (% DMSO control); inhibition” value in assay [1] and in assay [3] was “D (75 ≤ D)” throughout. Also, the IC50 in assay [2] is ≥ 750 nM. Further, the EC50 in assay [3] (setting [4]) and in assay [3] (setting [5]) was ≥ 750 nM in each case.

For `CCC(=O)Nc1ccc2c(c1)N(Cc1ccccc1)C(=O)c1cc(-c3ccc4[nH]ccc4c3)ccc1N2` [Compound I-16], the concentration for half-maximal inhibition (IC50) in assay [2] is ≥ 750 nM. For the same molecule, the EC50 in assay [3] (setting [4]) and in assay [3] (setting [5]) was 250 to 500 nM in each case.

Take `CN1CCC(n2cc(-c3ccc4c(c3)C(=O)N(Cc3cc(F)cc(F)c3)c3cc(F)ccc3N4)cn2)CC1` [Compound I-24]: the IC50 in assay [2] was < 250 nM. In addition, the EC50 in assay [3] (setting [4]) and in assay [3] (setting [5]) was ≥ 750 nM each time.

Consider `O=C1c2cc(-c3ccc4[nH]ccc4c3)ccc2Nc2ccc(F)cc2N1Cc1nccs1` [Compound I-10], for which the “Activity (% cetuximab); inhibition” value in assay [1] is recorded as “C (50 ≤ C < 75)”; in assay [3], “D (75 ≤ D)”. For the same molecule, the “Activity (% DMSO control); inhibition” value in assay [1] and in assay [3] was “D (75 ≤ D)” throughout. Also, the IC50 in assay [2] was ≥ 750 nM. The EC50 in assay [3] (setting [4]) and in assay [3] (setting [5]) was ≥ 750 nM throughout.

Turning to `CN1CCC(n2cc(-c3ccc4c(c3)C(=O)N(Cc3cccc5cc[nH]c35)c3cc(F)ccc3N4)cn2)CC1` [Compound I-25], the IC50 in assay [2] is < 250 nM. For the same molecule, the EC50 in assay [3] (setting [4]) and in assay [3] (setting [5]) was ≥ 750 nM in each case.

Regarding `O=C1c2cc(-c3ccc(N4CCNCC4)cc3)ccc2Nc2ccccc2N1Cc1ccccc1` [Compound I-11], the “Activity (% cetuximab); inhibition” value is “C (50 ≤ C < 75)” in assay [1] and “B (25 ≤ B < 50)” in assay [3]. Besides, the “Activity (% DMSO control); inhibition” value in assay [1] and in assay [3] was “D (75 ≤ D)” in each case. The IC50 in assay [2] is < 250 nM. Further, the EC50 in assay [3] (setting [4]) was ≥ 750 nM; in assay [3] (setting [5]), 250 to 500 nM.

As to `O=C1c2cc(-c3ccc(N4CCNCC4)cc3)ccc2Nc2ccc(F)cc2N1Cc1cccc2cc[nH]c12` [Compound I-18], in assay [2], the IC50 was < 250 nM. Moreover, the EC50 in assay [3] (setting [4]) is ≥ 750 nM; in assay [3] (setting [5]), < 250 nM.

As for `CN1CCC(n2cc(-c3ccc4c(c3)C(=O)N(Cc3cccc(F)c3)c3cc(F)ccc3N4)cn2)CC1` [Compound I-22], the IC50 in assay [2] was < 250 nM.

On to `CC(=O)Nc1ccc2c(c1)N(Cc1ccccc1)C(=O)c1cc(-c3ccc4[nH]ccc4c3)ccc1N2` [Compound I-15], for which the IC50 in assay [2] was ≥ 750 nM. The EC50 in assay [3] (setting [4]) and in assay [3] (setting [5]) was ≥ 750 nM each time.

For the molecule `O=C1c2cc(-c3ccc(N4CCNCC4)cc3)ccc2Nc2ccc(F)cc2N1Cc1ccccc1` [Compound I-1], the “Activity (% cetuximab); inhibition” value in assay [1] and in assay [3] was “B (25 ≤ B < 50)” in each case. Moreover, the “Activity (% DMSO control); inhibition” value in assay [1] and in assay [3] was “D (75 ≤ D)” throughout. Moreover, the EC50 in assay [3] (setting [4]) was ≥ 750 nM; in assay [3] (setting [5]) it was 500 to 750 nM.

Turning to `CN1CCN(c2ccc(Oc3ccc4c(c3)C(=O)N(Cc3ccccc3)c3cc(F)ccc3N4)cc2)CC1` [Compound I-20, 10-benzyl-8-fluoro-2-(4-(4-methylpiperazin-1-yl)phenoxy)-5,10-dihydro-11H-dibenzo[b,e][1,4]diazepin-11-one], the IC50 in assay [2] is < 250 nM. For the same molecule, the EC50 was ≥ 750 nM in assay [3] (setting [4]) and 250 to 500 nM in assay [3] (setting [5]).

In the case of `O=C1c2cc(-c3ccc(N4CCNCC4)cc3)ccc2Nc2ncc(F)cc2N1Cc1ccccc1` [Compound I-12], the IC50 in assay [2] is ≥ 750 nM. The EC50 in assay [3] (setting [4]) and in assay [3] (setting [5]) was ≥ 750 nM each time.

Take `Nc1ccc2c(c1)N(Cc1ccccc1)C(=O)c1cc(-c3ccc4[nH]ccc4c3)ccc1N2` [Compound I-14]: the IC50 in assay [2] was ≥ 750 nM. Moreover, the EC50 in assay [3] (setting [4]) and in assay [3] (setting [5]) was ≥ 750 nM throughout.

For `O=C1c2cc(Br)ccc2Nc2ccc(F)cc2N1Cc1ccccc1` [I-a], in assay [2], the IC50 is < 250 nM. In addition, the EC50 is ≥ 750 nM in assay [3] (setting [4]) and 250 to 500 nM in assay [3] (setting [5]).

For the molecule `CN1CCC(c2ccc(-c3ccc4c(c3)C(=O)N(Cc3ccccc3)c3cc(F)ccc3N4)cc2)CC1` [Compound I-17], the IC50 in assay [2] was < 250 nM.

As for `CN1CCC(n2cc(-c3ccc4c(c3)C(=O)N(Cc3cccc(Cl)c3)c3cc(F)ccc3N4)cn2)CC1` [Compound I-23], in assay [2], the IC50 was < 250 nM. In addition, the EC50 in assay [3] (setting [4]) and in assay [3] (setting [5]) was ≥ 750 nM each time.
